Results taken from PMC6722685, “A Novel Marine Natural Product Derived Pyrroloiminoquinone with Potent Activity against Skin Cancer Cells” (Marine Drugs, 2019).

Tests used:
SCC13 cells [1] = experiment: MTT assay for cell viability, SCC13 cells; assay type: cell-based, human; settings: for IC50 / IC90: Homo sapiens, SCC-13, MTT, 24 h treatment, mean ± SD, n = 4; for IC50: read-out: SSC13 Cells IC50 ± SD; for IC90: read-out: SSC13 Cells IC90 ± SD
Procedure: (§1) We first investigated the dose-dependent effects of all five compounds on the cell viability of human skin cancer cell line, SCC13 as well as an immortalized human skin keratinocyte cell line, HaCaT through MTT assay. […] IC50 and IC90 values for these compounds against these two cell lines were calculated (Table 1). There were statistically significant differences between these two values with p < 0.05.
(§2) All cell lines were seeded on a 96-well cell culture plate at 2 × 10^5 cells per well. After 24 h, the cells were treated with increasing doses of the compounds (0, 0.0625 μM, 0.125 μM, 0.25 μM, 0.5 μM, 1.0 μM). After incubation for 24 h, the medium was removed and 100 μL of MTT solution (500 µg/mL) in PBS was added and kept for 4 h at 37 °C. The formazan crystals thus formed were dissolved in DMSO and the optical density (OD) was measured at 570 nm using a microplate reader (BioTek Synergy H1 Plate Reader, Winooski, VT, USA).

HaCaT cells = experiment: MTT assay for cell viability, HaCaT cells; assay type: cell-based; settings: 24 h treatment, normal human keratinocytes, mean ± SD, n = 4
Procedure: as §1, §2

SCC13 cells [2] = experiment: Wound healing (cell migration) assay; assay type: cell-based, human; settings: 24 h, control group 93.37 ± 3.35
Procedure: Figure 4 Effect of C278 on migration and invasion ability of the SCC13 cells. (A) SCC13 cells were allowed to proliferate in a 24-well plate until reaching confluency. A scratch was made on the plate using a pipette tip. The unattached cells were washed off. The cells were then treated with either 0.1% DMSO or two doses of C278 (0.5 µM and 1.0 µM) and incubated for 24 h. The images were captured at the time of drug treatment and after 24 h of incubation through a light microscope. (Scale bar: 200 µM). (B) Percent wound closure was measured using Image J software and plotted in bar graphs. Results are combined from two independent experiments and presented as mean ± SD; n = 4. (C) SCC13 cells were seeded in the invasion chambers and incubated for 4 h. Now the cells were treated either with 0.1% DMSO or two doses of C278 (0.5 µM and 1.0 µM) for 24 h. The cells from the upper surface of the membrane were removed with cotton swabs. The invaded cells, which were in the lower surface of the membrane, were stained with crystal violet. Images of the invaded cells were captured using a light microscope. (D) The average number of cells invaded was counted in each group and plotted in bar graphs. […]
SCC13 cells were seeded on 24-well cell culture plate at a density of 2 × 10^5 cells/well and cultured until cells were confluent. […] Percent change in wound area was measured by Image J software.

SCC13 cells [3] = experiment: Cell invasion (trans-well, Matrigel) assay; assay type: cell-based, human; settings: 24 h, control group 56.50 ± 4.95%
Procedure: Figure 4 Effect of C278 on migration and invasion ability of the SCC13 cells. (A) SCC13 cells were allowed to proliferate in a 24-well plate until reaching confluency. A scratch was made on the plate using a pipette tip. The unattached cells were washed off. The cells were then treated with either 0.1% DMSO or two doses of C278 (0.5 µM and 1.0 µM) and incubated for 24 h. The images were captured at the time of drug treatment and after 24 h of incubation through a light microscope. (Scale bar: 200 µM). (B) Percent wound closure was measured using Image J software and plotted in bar graphs. Results are combined from two independent experiments and presented as mean ± SD; n = 4. (C) SCC13 cells were seeded in the invasion chambers and incubated for 4 h. Now the cells were treated either with 0.1% DMSO or two doses of C278 (0.5 µM and 1.0 µM) for 24 h. The cells from the upper surface of the membrane were removed with cotton swabs. The invaded cells, which were in the lower surface of the membrane, were stained with crystal violet. Images of the invaded cells were captured using a light microscope. (D) The average number of cells invaded was counted in each group and plotted in bar graphs. Results are presented as mean ± SD; n = 4. * p < 0.01, ** p < 0.001, *** p < 0.0001. […]

[4] = tested on: proliferating cell nuclear antigen (PCNA); experiment: Western blot, PCNA expression in SCC13 cells; assay type: cell-based, human; settings: 24 h, dose-dependent
Procedure: Figure 3 Effects of C278 on the viability of SCC13 and HaCaT cells (A) SCC13 cells were treated with increasing concentrations of C278 at 24 h, and the percentage cell viability was estimated. Results are combined from two independent experiments and are presented as mean ± SD; n = 4. (B) HaCaT cells were treated with increasing concentrations of C278 at 24 h, and the percentage cell viability was estimated. Results are combined from two independent experiments and are presented as mean ± SD; n = 4. (C) Expression of PCNA was measured through western blot. The expression of this protein was normalized using β-Actin as a loading control. Figures are representatives of 2 independent experiments. (D) Densiometric analysis of bands was performed and the bar graphs expressing arbitrary units are presented. Error bar represents mean ± SD, n = 4. * p < 0.01, ** p < 0.001, *** p < 0.0001.
(§3) SCC13 cells (1–2 × 10^6) cultured in 6-well culture plate were treated with different concentrations of C278 for 24 h. […] Membranes were then washed three times with wash buffer (TBS containing 0.5% Tween), and then incubated with horseradish peroxidase (HRP)-conjugated secondary Ab and detected by enhanced chemiluminescence (ECL) detection system according to the manufacturer’s instructions.

Bcl-2 = experiment: Western blot, Bcl-2 expression in SCC13 cells; assay type: cell-based, human; settings: SCC13 cells, 0.25, 0.5 and 1 µM, 24 h
Procedure: (§4) Figure 5 Effect of C278 on apoptotic and autophagy related proteins in SCC13 cells. SCC13 cells were treated with 0.1% DMSO and 0.25, 0.5 and 1 µM of C278 for 24 h. The cells were then lysed in cell lysis buffer and protein was estimated. Western blot was performed to estimate the level of expression for human Bcl2, Cleaved-PARP and Beclin-1. The expression of these proteins was normalized using β-Actin as a loading control. Figures are representatives of 2 independent experiments. Bands were analyzed densiometrically and bar graphs expressing arbitrary units are presented adjacent to the western blot. Error bar represents mean ± SD, n = 4. * p < 0.01. ** p < 0.001.
as §3, with “h. Cells were then lysed in cell lysis buffer containing protease inhibitor cocktail and the protein concentrations in the cleared supernatants were estimated using the bicinchoninic acid (BCA) protein assay. The cell lysates were resolved by 10% SDS-PAGE and transferred to nitrocellulose membrane (BioRad, Hercules, CA, USA).” for “h.”

cleaved-PARP = experiment: Western blot, cleaved-PARP in SCC13 cells; assay type: cell-based, human; settings: SCC13 cells, 0.25, 0.5 and 1 µM, 24 h
Procedure: as §4
as §3, with “h. Cells were then lysed in cell lysis buffer containing protease inhibitor cocktail and the protein concentrations in the cleared supernatants were estimated using the bicinchoninic acid (BCA) protein assay. The cell lysates were resolved by 10% SDS-PAGE and transferred to nitrocellulose membrane (BioRad, Hercules, CA, USA).” for “h.”

beclin-1 = experiment: Western blot, beclin-1 expression in SCC13 cells; assay type: cell-based, human; settings: SCC13 cells, 0.25, 0.5 and 1 µM, 24 h
Procedure: as §4
as §3, with “h. Cells were then lysed in cell lysis buffer containing protease inhibitor cocktail and the protein concentrations in the cleared supernatants were estimated using the bicinchoninic acid (BCA) protein assay. The cell lysates were resolved by 10% SDS-PAGE and transferred to nitrocellulose membrane (BioRad, Hercules, CA, USA).” for “h.”

Q: How did the IC50 (SCC13 cells [1]) turn out when `Cc1ccc(S(=O)(=O)n2cc3c4c2C(=O)C(NCc2ccccc2)=CC4=NCC3)cc1` [Compound C11] was run?
A: 510 ± 30 nM

Q: What about the IC90 (SCC13 cells [1]) of the same molecule?
A: 920 ± 60 nM

Q: And the IC50 (HaCaT cells)?
A: 480 ± 10 nM

Q: What about the IC90 (HaCaT cells) of the same molecule?
A: 870 ± 30 nM

Q: What does the source list for `Cc1ccc(S(=O)(=O)n2cc3c4c2C(=O)C(NCCc2ccc5c(c2)OCO5)=CC4=NCC3)cc1` [Compound C15]?
A: IC50 (SCC13 cells [1]): 5310 ± 190 nM; IC90 (SCC13 cells [1]): 9560 ± 350 nM; IC50 (HaCaT cells): 730 ± 90 nM; IC90 (HaCaT cells): 1320 ± 160 nM

Q: Which IC50 (SCC13 cells [1]) does the source give for `Cc1ccc(S(=O)(=O)n2cc3c4c2C(=O)C(NCc2ccco2)=CC4=NCC3)cc1` [Compound C45] here?
A: 2580 ± 230 nM

Q: And the IC90 (SCC13 cells [1])?
A: 4650 ± 420 nM

Q: And the IC50 (HaCaT cells)?
A: 5240 ± 80 nM

Q: And the IC90 (HaCaT cells)?
A: 9430 ± 150 nM

Q: What does the source list for `O=C1C(NCCc2ccc3c(c2)OCO3)=CC2=NCCc3c[nH]c1c32` [Compound C238]?
A: IC50 (SCC13 cells [1]): 820 ± 20 nM; IC90 (SCC13 cells [1]): 1480 ± 40 nM; IC50 (HaCaT cells): 2350 ± 210 nM; IC90 (HaCaT cells): 4230 ± 360 nM

Q: For `O=C1C(NCc2cccs2)=CC2=NCCc3c[nH]c1c32` [Compound C278], which IC50 (SCC13 cells [1]) is on record?
A: 500 ± 110 nM

Q: What about the IC90 (SCC13 cells [1]) of the same molecule?
A: 900 ± 210 nM

Q: What about the “selectivity for killing SCC13 cells compared to HaCaT cells” value (SCC13 cells [1]; SCC13 vs HaCaT) of the same molecule?
A: two-fold

Q: What about the IC50 (HaCaT cells) of the same molecule?
A: 1150 ± 210 nM

Q: What about the IC90 (HaCaT cells) of the same molecule?
A: 2070 ± 370 nM

Q: What about the Percent wound closure (SCC13 cells [2]; 0.5 μM) of the same molecule?
A: 69.06 ± 2.91%

Q: And the Percent wound closure (SCC13 cells [2]; 1.0 μM)?
A: 39.53 ± 2.17%

Q: What about the “number of invasive cells” value (SCC13 cells [3]; 0.5 μM) of the same molecule?
A: 32.00 ± 4.24%

Q: What about the “number of invasive cells” value (SCC13 cells [3]; 1.0 μM) of the same molecule?
A: 19.50 ± 4.95%

Q: What about the “expression of PCNA” value [4] of the same molecule?
A: downregulation

Q: What about the “expression of Bcl-2 protein” value (Bcl-2) of the same molecule?
A: significantly downregulated

Q: And the “production of cleaved-PARP” value (cleaved-PARP)?
A: increased in a dose-dependent manner

Q: What about the “expression of beclin-1” value (beclin-1) of the same molecule?
A: increased in a dose-dependent manner
